Measured values: patent publication US5800809A, “Non-crosslinked acrylic polymers and non-crosslinked anion exchange resins” (priority 1992, dated 1998)

Tests used:
[1] = rat, in vivo
[2] = design: species or system CD-1 mouse; settings: mouse, in vivo
Description: (3) Micronucleus test on mice.
test on mice HBS-107 was given orally at a dosage of
was prepared after 24, 48 and 72 hours

[3] = rabbit, in vivo

Substance: polyacryloyloxyethyl-N,N-dimethylbenzyl ammonium salt [Example 1]
- urine volume, Na^+ and Cl^- [1]: Significant reduction
- induction of micronucleus formation [2]: No induction
- irritation (in words) [3]: not strong
